Where two headings read alike, the source gives them in different places.
Experiments:
cytochrome p450 1A/1B = assay: Cytochrome p450 activity assay (P450-GLO), 1A/1B
Experimental: (§3) Porous membrane segments roughly 2 cm^2 in area were excised and transferred to standard 24-well plates alongside corresponding static cultures. The cells were incubated with 500 μl of hepatocyte media containing substrates from commercially available P450-GLO kits (kits for luminescent cytochrome p450 assays) at the manufacturer-recommended concentrations. After 4 hours, the media was transferred to 96-well plates and assayed for luminescent metabolites to reflect cytochrome p450 activity as per the manufacturer protocol.
(§4) After 48 hours, on day 7, segments of the porous membrane from the devices containing hepatocytes cultured under controlled hemodynamics that were roughly 2.0 cm^2 in area were excised and transferred to standard 24-well plates and treated with substrates for the Cyp p450 enzymes in parallel to corresponding static cultures treated with the different agents. Cytochrome p450 assays were done on day 7 using commercially available P450-GLO kits. After 4 hours the media was transferred to 96-well plates and assayed for luminescent metabolites to reflect cytochrome p450 activity.

primary rat hepatocytes [1] = assay: Toxicity to hepatocytes under controlled flow during Cyp induction; conditions: 50 μM dexamethasone, concentration recommended for static cultures
Experimental: Cytochrome p450 assays were done on day 7 using commercially available P450-GLO kits. After 4 hours the media was transferred to 96-well plates and assayed for luminescent metabolites to reflect cytochrome p450 activity.

cytochrome p450 3A = assay: Cytochrome p450 activity assay (P450-GLO), 3A; type: in vitro ADME, rat; conditions: controlled hemodynamics; dexamethasone 02.5 μM, 48 hours; DMSO 11.64
Experimental: as §3, §4

primary rat hepatocytes [2] = assay: Gluconeogenesis assay (AMPLEX RED glucose); type: cell-based; conditions: for Effect (% Change) on glucose levels: insulin 2 nM or glucagon 100 nM; for glucose levels: decreased by (insulin) / increased by (glucagon) / glucose levels: decreased by (insulin) / increased by further (glucagon): insulin 2 nM, glucagon 100 nM; for glucose levels: decreased by (insulin) / increased by further (glucagon): substrate glycerol
[3] = system: endothelial cells and smooth muscle cells; assay: Hypertension model gene array analysis; type: cell-based; conditions: healthy and atheroprone conditions
Experimental: ANG2 at a concentration of 10 nM (10.46 ng/ml) or a DMSO vehicle control (VEH) was added to the upper volume and RNA was collected for gene array analysis.
Aldosterone at a concentration of 1 mM or a vehicle control (VEH) was added to the upper volume and RNA was collected for gene array analysis

[4] = system: primary human hepatocytes; conditions: 72 h
Experimental: Hepatocytes were then incubated with medium containing 1 mg/ml of MTT reagent (thiazolyl blue tetrazolium bromide) for 1 hour, following which the cells were lysed in DMSO to release the formazan blue dye formed. The solution was transferred to a 96 well plate and the absorbance was read at 595 nm.

primary rat hepatocytes [5] = assay: miRNA122 assay; type: cell-based; conditions: static conditions; chlorpromazine 1 μM, 4 hours
Experimental: The hepatocytes were then washed with PBS and incubated with serum free hepatocyte medium with or without known toxic drug chlorpromazine (CPZ) at two different concentrations (1 μM and 10 μM) for 4 hours. Supernatants from the cells were collected and microRNA extraction was performed using the MIRNEASY serum/plasma kit (a kit for extracting microRNA, Qiagen). The cDNA was prepared by using the MISCRIPTII RT kit (a kit for preparing cDNA, Qiagen) and samples quantified using the MISCRIPT SYBR GREEN PCR kit (a kit for quantifying cDNA, Qiagen), following the manufacturer's instructions.
The hepatocytes were washed with PBS and immediately incubated with either vehicle (distilled water) or chlorpromazine (1 μM) for 4 hours. The supernatant was collected and miRNA 122 levels were measured as described above.

[6] = system: primary human hepatocytes; conditions: 1 μM chlorpromazine; controlled hemodynamic conditions relative to static controls
rat hepatocytes = assay: RT-PCR of oxidative stress-related and MRP genes; conditions: controlled hemodynamic conditions
primary rat hepatocytes [7] = assay: Biliary activity stain (CDFDA), canalicular pattern; type: cell-based; conditions: controlled hemodynamic conditions, 48 hours
From the text: Samples were then washed with PBS and placed on glass slide for confocal imaging.

[8] = system: endothelial cell/smooth muscle cell co-cultures; assay: HDL in hemodynamic environment; type: cell-based; conditions: HDL at 45 μg/ml or 90 μg/ml; hemodynamic shear stress
Experimental: An additional component of plasma cholesterol distinct from nLDL or oxLDL is HDL. […] HDL was then added to the upper volume at a concentration of 45-1,000 μg/ml. This broad range reflects the broad range of HDL concentrations that can exist within human patients. HDL concentrations in individuals at risk for vascular disease are generally less than about 300 μg/ml, while HDL concentrations in healthy individuals range from greater than about 300 μg/ml up to about 2,000 μg/ml in healthy exercising patients.
In additional experiments, endothelial cell/smooth muscle cell co-cultures plated as described above were preconditioned for 16 hours with hemodynamic shear stress. From hours 16-24 the cells were additionally primed with 0.05 ng/ml TNFα and 50 μg/ml of oxLDL (compared to a vehicle control containing 50 μg/ml nLDL) in the upper volume. At 24 hours, 45 μg/ml or 90 μg/ml HDL was added to the media in the upper volume and hemodynamic shear stress was continued for the next 24 hours (hours 24-48).

[9] = system: endothelial cells and smooth muscle cells; assay: oxLDL in hemodynamic environment: gene array, gene, protein and cytokine expression; type: cell-based; conditions: for number of genes regulated as compared to cells treated with nLDL: atheroprone, 50 μg/ml oxLDL vs 50 μg/ml nLDL
Experimental: Following 16-24 hours of shear stress preconditioning with atheroprotective or atheroprone hemodynamic forces, oxLDL was added to upper volume (containing the endothelial cells) at a concentration of 10-50 μg/ml (FIG. 5). In devices not receiving oxLDL, nLDL was added to the upper volume at the same concentration and used as a vehicle control. This concentration of oxLDL is similar to plasma concentrations of oxLDL observed in patients with cardiovascular disease. Shear stress application was continued for an additional 24 hours in the presence of oxLDL.
(§1) Five different donor pairs were used to analyze the oxLDL (50 μg/ml) response compared to nLDL (50 μg/ml) within the atheroprone hemodynamic environment in endothelial cells and smooth muscle cells. […] Significant genes were considered using an FDR of 0.01. Gene expression results are reported as the relative expression of the gene as compared to the expression of β-2 microglobulin (B2M). Protein expression results are reported as the relative expression of the protein as compared to the expression of actin. Activity of NFκB was assessed using an adenovirus NFκB-luciferase (Ad-NFκB-luc) reporter infected in ECs and SMCs.

NFκB = assay: NFκB-luciferase reporter (Ad-NFκB-luc); type: cell-based; conditions: smooth muscle cells; oxLDL added to upper volume only
Experimental: as §1

endothelial cells [10] = assay: oxLDL and TNFα in hemodynamic environment: RT-PCR gene expression; type: cell-based; conditions: atheroprone shear stress, 50 μg/ml oxLDL without or with 0.05 ng/ml TNFα
Experimental: To emulate more inflammatory stages of atherosclerosis, it is desirable to combine multiple circulating factors to better emulate the complexity found within human blood vessels. […] The media in the upper volume was then exchanged for media containing 0.05 ng/ml TNFα and 50 μg/ml of oxLDL. Media containing only 50 μg/ml of nLDL was used as a control.
Following 24 hours of shear stress preconditioning with atheroprotective or atheroprone hemodynamic forces, 50 μg/ml of oxLDL and 0.05 ng/ml of TNFα were added to upper volume (containing the endothelial cells). This concentration of TNFα is similar to plasma concentrations of TNFα observed in patients with cardiovascular disease. In devices not receiving oxLDL, nLDL was added to the upper volume at the same concentration and used as a vehicle control. Shear stress application was continued for an additional 24 hours in the presence of TNF-α and oxLDL (see FIG. 5). Gene expression analysis was performed using RT-PCR.

[11] = system: endothelial and smooth muscle cells; assay: Expression of genes relevant to thrombosis; type: cell-based, Human; conditions: TNFα stimulation; both endothelial and smooth muscle cells
Experimental: (§2) Human endothelial cells were co-cultured with or without smooth muscle cells in the presence or absence of human-derived, region-specific hemodynamics. Endothelial cells were exposed to TNFα at various concentrations and incubated in human, platelet-free plasma supplemented by ALEXA FLUOR 488 (A488, a fluorescent dye)-labeled fibrinogen. Conversion of A488-fibrinogen to A488-fibrin and deposition on the endothelium was quantified by confocal microscopy.
FIG. 2B depicts a heat map of relative gene expression in endothelial and smooth muscle cells (grown under atheroprone or atheroprotective conditions; see FIG. 2A) of several genes relevant to thrombosis. The relative changes in gene expression of Tissue Factor (F3) and Thrombomodulin (THBD) are presented below the heat map. Atheroprone hemodynamics up-regulate Tissue Factor (F3) compared to atheroprotective shear stress. […] In addition, TNFα stimulation reduces Tissue Factor Pathway Inhibitor (TFPI) in both endothelial and smooth muscle cells.

endothelial cells [12] = assay: TNFα in hemodynamic environment: gene expression; type: cell-based; conditions: 0.1-1 ng/ml TNFα; atheroprone hemodynamic forces; not seen at same levels in static cultures
Experimental: Following 24 hours of shear stress preconditioning with atheroprotective or atheroprone hemodynamic forces, TNFα was added to upper volume (containing the endothelial cells) at a concentration of 0.05-1 ng/ml (see FIG. 5). This concentration of TNFα is similar to plasma concentrations of TNFα observed in patients with cardiovascular disease. Shear stress application was continued for an additional 24 hours in the presence of TNFα.

[13] = system: Endothelial/smooth muscle cell co-cultures; assay: Coculture thrombosis assay with shear stress, Protocol A (fibrin deposition); type: cell-based, Human; conditions: atheroprone hemodynamics vs static cultures
Experimental: as §2
Following 24 hours of shear stress application (atheroprone or atheroprotective), the media was supplemented with TNFα at a concentration of 0.05 ng/mL or 0.10 ng/mL and shear stress was continued for an additional 24 hours, as shown in FIG. 3A. Media was then removed from both the upper and lower chambers, and both the endothelial cells and smooth muscle cells are washed twice with PBS. Endothelial cells were then incubated for 15 minutes at 37° C. with PFP supplemented with 37.5 μg/mL ALEXA-488 human fibrinogen, 20 μg/mL corn trypsin inhibitor, and 10 mM calcium, and fixed and imaged as described above for monocultures.

[14] = No substrate, 4 hours, controlled hemodynamics
[15] = substrate Glycerol (2 mM), 4 hours
[16] = substrate Lactate/Pyruvate (20 mM/2 mM), 4 hours
[17] = substrates lactate and pyruvate
[18] = atheroprone hemodynamic environment

Cc1ccc2cc3c(ccc4ccccc43)c3c2c1CC3 [3-MC, 3-Methyl Cholanthrene]
induction responses seen at lower levels under controlled hemodynamics (cytochrome p450 1A/1B; controlled hemodynamics (0.1 μM) vs static (1 μM)): 10 fold | 1A/1B response (cytochrome p450 activity normalized to ATP content) (cytochrome p450 1A/1B; controlled hemodynamics, 3-MC 0.1 μM, 48 hours, DMSO 4.87): 133.06

C[C@@H]1C[C@H]2[C@@H]3CCC4=CC(=O)C=C[C@]4(C)[C@@]3(F)[C@@H](O)C[C@]2(C)[C@@]1(O)C(=O)CO [Dexamethasone, dexamethasone]
toxicity in the controlled flow system (primary rat hepatocytes [1]): toxic | 3A response (cytochrome p450 activity normalized to ATP content) (cytochrome p450 3A): 57.53

OCC(O)CO [Glycerol, glycerol]
change in glucose produced with substrate alone (primary rat hepatocytes [2]; Glycerol 2 mM, no hormone, 4 hours): Glycerol (+67%) | glucose produced by the hepatocytes increased by (primary rat hepatocytes [2]; substrate glycerol (2 mM) alone): 67%

C[C@]12CCC(=O)C=C1CC[C@@H]1[C@@H]2[C@@H](O)C[C@]2(C=O)[C@@H](C(=O)CO)CC[C@@H]12 [aldosterone]
inflammatory genes (gene array) ([3]; Aldosterone 1 mM vs vehicle): upregulated

CN(C)CCCN1c2ccccc2Sc2ccc(Cl)cc21 [chlorpromazine]
toxicity ([4]; 1 μM): 30.3% | toxicity ([4]; 10 μM): 46.4% | miRNA 122 levels in the supernatants compared to vehicle controls (primary rat hepatocytes [5]): did not cause any change | upregulation of APEX nuclease gene [6]: 2.8 fold | upregulation of glutathione reductase (GSR) gene [6]: 8.3 fold | upregulation of sorbitol dehydrogenase (SORD) gene [6]: 6.9 fold | upregulation of thioredoxin reductase 1 (TXNRD1) gene [6]: 5.5 fold

Cc1c(C)c2c(c(C)c1O)CCC(C)(COc1ccc(CC3SC(=O)NC3=O)cc1)O2 (stereo not shown) [troglitazone]
oxidative stress-related genes and MRP3 and MRP4 genes (rat hepatocytes): upregulation | changes in the canalicular pattern (cholestatic changes) (primary rat hepatocytes [7]; troglitazone 4 uM): visibly dilated canalicular structures | changes in the canalicular pattern (cholestatic changes) (primary rat hepatocytes [7]; troglitazone 40 uM): much more prominent and extensive

Angiotensin II (DRVYIHPF; Angiotensin-2; UniProt P01019 25-32, looked up) [ANG2]
inflammatory genes (gene array) ([3]; ANG2 10 nM (10.46 ng/ml) vs DMSO vehicle): upregulated

glucagon
Effect (% Change) on glucose levels (primary rat hepatocytes [2]; [14]): +51% | glucose levels: decreased by (insulin) / increased by (glucagon) (primary rat hepatocytes [2]; absence of a substrate): 51% | Effect (% Change) on glucose levels (primary rat hepatocytes [2]; [15]): +15% | Effect (% Change) on glucose levels (primary rat hepatocytes [2]; [16]): +80% | glucose levels: decreased by (insulin) / increased by further (glucagon) (primary rat hepatocytes [2]): 15% | glucose levels: decreased by (insulin) / increased by (glucagon) (primary rat hepatocytes [2]; [17]): 80%

high-density lipoprotein [HDL]
atheroprotective and pro-inflammatory gene and protein activation [8]: activates many atheroprotective genes while blocking activation of pro-inflammatory genes and proteins

insulin
Effect (% Change) on glucose levels (primary rat hepatocytes [2]; [14]): −27% | glucose levels: decreased by (insulin) / increased by (glucagon) (primary rat hepatocytes [2]; absence of a substrate): 27% | Effect (% Change) on glucose levels (primary rat hepatocytes [2]; [15]): −38% | Effect (% Change) on glucose levels (primary rat hepatocytes [2]; [16]): −25% | glucose levels: decreased by (insulin) / increased by further (glucagon) (primary rat hepatocytes [2]): 38% | glucose levels: decreased by (insulin) / increased by (glucagon) (primary rat hepatocytes [2]; [17]): 25%

oxidized low-density lipoprotein [oxLDL]
atheroprotective signaling (eNOS and KLF2) gene expression ([9]; atheroprone conditions): reduced | inflammatory genes IL8 and E-Selectin (SELE) expression ([9]; atheroprone conditions, not regulated in traditional static cultures): activate | levels of secreted cytokines (IL6, IL8, MCP-1) [9, 18]: increased | phosphorylation of atheroprotective eNOS signaling [9, 18]: reduced | number of genes regulated as compared to cells treated with nLDL ([9]; endothelial cells, 5 donors): 688 genes | number of genes regulated as compared to cells treated with nLDL ([9]; smooth muscle cells, 4 donors): 304 genes | NFκB signaling (luciferase reporter) (NFκB): elevated | eNOS gene expression (NOS3) (endothelial cells [10]): reduced | E-Selectin (SELE) gene expression (endothelial cells [10]; control nLDL): higher levels

tumor necrosis factor-α [TNFα]
Tissue Factor Pathway Inhibitor (TFPI) expression [11]: reduces | inflammatory response (expression of E-Selectin, ICAM, VCAM, IL8) (endothelial cells [12]): induced an inflammatory response | lower levels of TNFα to induce fibrin deposition as compared to static cultures [13]: 100- to 200 fold
